Experimental data from patent CN103285022A, “用于制备治疗多囊卵巢综合征的中药单体组合物及其制备方法” (Second Military Medical University SMMU, priority 2013, dated 2013).

What was measured:
[1] = test system: kidney [肾脏]; test: Kidney histopathology / renal safety; type: in vivo, rat; conditions: conclusion; given together (27/200/100 mg/kg), 28 days
[2] = test system: liver [肝脏]; type: in vivo, rat; conditions: for hepatotoxicity: conclusion, given together (27/200/100 mg/kg), 28 days
[3] = test system: AR mRNA; test: RT-PCR of ovarian tissue, AR mRNA; type: in vivo, rat; conditions: vs model group, 28 days gavage
[4] = test system: 3β-HSD mRNA; test: RT-PCR of ovarian tissue, 3β-HSD mRNA; type: in vivo, rat; conditions: vs model group, 28 days gavage
[5] = test system: CYP17 mRNA; test: RT-PCR of ovarian tissue, CYP17 mRNA; type: in vivo, rat; conditions: vs model group, 28 days gavage
[6] = test system: polycystic ovary syndrome rat model [多囊卵巢综合征大鼠模型]; test: Oestrous cycle by vaginal exfoliative cytology, DHEA-induced PCOS rats; type: in vivo; conditions: oral gavage 28 days, then 10 days of vaginal cytology, combination 27/200/100 mg/kg, spironolactone 20 mg/kg
[7] = test system: polycystic ovary syndrome rat model [多囊卵巢综合征动物模型]; test: Ovarian wet weight and ovarian coefficient; type: in vivo; conditions: 28 days gavage; ovarian wet weight significantly lower than model group

O=c1c(O)c(-c2ccc(O)c(O)c2)oc2cc(O)cc(O)c12 [槲皮素, 槲皮素(Quercetin)]
nephrotoxicity [1]: 均不具有肝肾毒性 | hepatotoxicity [2]: 均不具有肝肾毒性

C[C@H]1COC2=C1C(=O)C(=O)c1c2ccc2c1CCCC2(C)C [隐丹参酮, 隐丹参酮(Cryptotanshinone)]
nephrotoxicity [1]: 均不具有肝肾毒性 | hepatotoxicity [2]: 均不具有肝肾毒性

CC(=O)S[C@@H]1CC2=CC(=O)CC[C@]2(C)[C@H]2CC[C@@]3(C)[C@@H](CC[C@@]34CCC(=O)O4)[C@H]12 [螺内酯, 螺内酯(Spironolactone)]
AR mRNA expression in ovarian tissue [3]: 显著降低 | 3β-HSD mRNA expression in ovarian tissue [4]: 显著降低 | CYP17 mRNA expression in ovarian tissue [5]: 显著降低 | sexual cycle recovery rate [6]: 80% | liver histopathology ([2]; rat, in vivo): 个别出现肝细胞脂肪样变性,胞浆透明度增加,细胞胞浆不清,部分细胞核崩解,肝板破坏,汇管区增粗 | increase of ovarian volume and wet weight in model rats, effect of treatment [7]: 均可以逆转这种情况

O=C(O)[C@H]1O[C@@H](Oc2cc3oc(-c4ccccc4)cc(=O)c3c(O)c2O)[C@H](O)[C@@H](O)[C@@H]1O [黄芩苷, 黄芩苷(Baicalin)]
nephrotoxicity [1]: 均不具有肝肾毒性 | hepatotoxicity [2]: 均不具有肝肾毒性
